From ChEMBL document CHEMBL1201862, “PubChem BioAssay data set” (2004)
Calls of active or inactive are those of the source.

Columns and labels:
[1] = biological target: cGMP-dependent protein kinase 1 (Homo sapiens, UniProt Q13976); format: functional;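 further: value from a kinome panel screen with PRKG1 as the panel member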
[2] = biological target: Proto-oncogene tyrosine-protein kinase ROS (Homo sapiens, UniProt P08922); format: functional;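 further: ROS1 tested as one member of a kinome-wide kinase panel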
[3] = biological target: Eukaryotic elongation factor 2 kinase (Homo sapiens, UniProt O00418); format: functional
[4] = biological target: Maternal embryonic leucine zipper kinase (Homo sapiens, UniProt Q14680); format: functional
Sequence of Maternal embryonic leucine zipper kinase (Q14680 whole entry): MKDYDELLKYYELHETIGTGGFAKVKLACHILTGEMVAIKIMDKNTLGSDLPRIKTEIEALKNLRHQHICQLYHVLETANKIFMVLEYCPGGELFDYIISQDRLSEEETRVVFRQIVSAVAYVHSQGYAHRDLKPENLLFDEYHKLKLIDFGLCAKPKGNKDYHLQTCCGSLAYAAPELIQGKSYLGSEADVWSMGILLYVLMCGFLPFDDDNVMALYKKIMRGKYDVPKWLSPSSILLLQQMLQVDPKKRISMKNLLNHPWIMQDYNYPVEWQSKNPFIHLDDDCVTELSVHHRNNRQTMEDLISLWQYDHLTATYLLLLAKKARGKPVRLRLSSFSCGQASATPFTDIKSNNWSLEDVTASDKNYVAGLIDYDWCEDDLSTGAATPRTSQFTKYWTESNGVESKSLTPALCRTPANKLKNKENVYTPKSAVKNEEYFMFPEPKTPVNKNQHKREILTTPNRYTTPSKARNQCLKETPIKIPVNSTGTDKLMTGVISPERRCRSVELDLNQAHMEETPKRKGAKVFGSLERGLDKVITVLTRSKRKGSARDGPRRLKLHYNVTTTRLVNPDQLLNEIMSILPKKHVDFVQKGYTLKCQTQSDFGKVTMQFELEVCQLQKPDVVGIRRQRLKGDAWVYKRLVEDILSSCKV

[5] = biological target: Serine/threonine-protein kinase TAO1 (Homo sapiens, UniProt Q7L7X3); format: functional
Sequence of Serine/threonine-protein kinase TAO1 (Q7L7X3 whole entry): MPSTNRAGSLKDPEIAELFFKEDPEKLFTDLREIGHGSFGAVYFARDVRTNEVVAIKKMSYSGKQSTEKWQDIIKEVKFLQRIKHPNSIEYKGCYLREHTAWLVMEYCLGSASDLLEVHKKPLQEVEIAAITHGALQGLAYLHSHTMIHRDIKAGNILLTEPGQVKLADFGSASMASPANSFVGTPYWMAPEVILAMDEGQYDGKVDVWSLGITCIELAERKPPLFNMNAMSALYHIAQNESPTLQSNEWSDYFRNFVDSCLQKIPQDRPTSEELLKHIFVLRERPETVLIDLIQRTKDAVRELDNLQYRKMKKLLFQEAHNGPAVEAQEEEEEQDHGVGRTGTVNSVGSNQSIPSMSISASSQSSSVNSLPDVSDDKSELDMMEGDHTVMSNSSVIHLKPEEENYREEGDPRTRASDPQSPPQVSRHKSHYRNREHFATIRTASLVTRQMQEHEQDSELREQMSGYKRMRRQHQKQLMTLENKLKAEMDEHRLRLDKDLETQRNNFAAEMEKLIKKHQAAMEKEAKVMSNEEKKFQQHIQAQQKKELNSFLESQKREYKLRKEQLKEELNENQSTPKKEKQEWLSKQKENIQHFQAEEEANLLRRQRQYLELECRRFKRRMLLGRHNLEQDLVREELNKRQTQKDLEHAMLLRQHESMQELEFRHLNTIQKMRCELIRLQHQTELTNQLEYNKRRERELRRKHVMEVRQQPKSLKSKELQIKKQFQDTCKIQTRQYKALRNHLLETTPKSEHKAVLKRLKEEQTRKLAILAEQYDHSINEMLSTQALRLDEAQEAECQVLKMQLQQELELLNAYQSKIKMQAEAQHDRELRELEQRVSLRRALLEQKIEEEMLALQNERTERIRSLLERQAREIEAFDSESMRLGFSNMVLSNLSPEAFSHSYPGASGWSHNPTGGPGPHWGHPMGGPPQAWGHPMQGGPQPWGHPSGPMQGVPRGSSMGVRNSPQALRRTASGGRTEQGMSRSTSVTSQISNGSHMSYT

[6] = biological target: Mitogen-activated protein kinase kinase kinase 20 (Homo sapiens, UniProt Q9NYL2); format: functional
[7] = biological target: Vascular endothelial growth factor receptor 1 (Homo sapiens, UniProt P17948); format: functional;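 further: measured within a kinome-wide profiling panel, FLT1 as the panel member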
[8] = biological target: Megakaryocyte-associated tyrosine-protein kinase (Homo sapiens, UniProt P42679); format: functional;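 further: affinity measured as one member of a kinase panel (Navigating the Kinome) against MATK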
Sequence of Megakaryocyte-associated tyrosine-protein kinase (P42679 whole entry): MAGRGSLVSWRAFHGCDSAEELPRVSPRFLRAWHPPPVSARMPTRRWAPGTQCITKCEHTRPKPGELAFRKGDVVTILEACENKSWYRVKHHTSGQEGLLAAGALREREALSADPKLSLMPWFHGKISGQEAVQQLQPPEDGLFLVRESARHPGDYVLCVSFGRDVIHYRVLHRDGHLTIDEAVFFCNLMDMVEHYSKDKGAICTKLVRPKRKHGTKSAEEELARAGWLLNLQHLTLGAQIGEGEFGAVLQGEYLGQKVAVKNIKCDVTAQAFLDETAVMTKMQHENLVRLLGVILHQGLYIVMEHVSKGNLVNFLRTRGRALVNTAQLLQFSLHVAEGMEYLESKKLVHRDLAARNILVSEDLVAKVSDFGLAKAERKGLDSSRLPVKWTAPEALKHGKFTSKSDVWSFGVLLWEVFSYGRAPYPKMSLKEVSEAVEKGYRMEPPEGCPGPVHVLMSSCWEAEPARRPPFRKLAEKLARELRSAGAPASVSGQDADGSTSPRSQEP

[9] = biological target: Testis-specific serine/threonine-protein kinase 1 (Homo sapiens, UniProt Q9BXA7); format: functional
[10] = biological target: Protein-tyrosine kinase 2-beta (Homo sapiens, UniProt Q14289); format: functional
Sequence of Protein-tyrosine kinase 2-beta (Q14289 whole entry): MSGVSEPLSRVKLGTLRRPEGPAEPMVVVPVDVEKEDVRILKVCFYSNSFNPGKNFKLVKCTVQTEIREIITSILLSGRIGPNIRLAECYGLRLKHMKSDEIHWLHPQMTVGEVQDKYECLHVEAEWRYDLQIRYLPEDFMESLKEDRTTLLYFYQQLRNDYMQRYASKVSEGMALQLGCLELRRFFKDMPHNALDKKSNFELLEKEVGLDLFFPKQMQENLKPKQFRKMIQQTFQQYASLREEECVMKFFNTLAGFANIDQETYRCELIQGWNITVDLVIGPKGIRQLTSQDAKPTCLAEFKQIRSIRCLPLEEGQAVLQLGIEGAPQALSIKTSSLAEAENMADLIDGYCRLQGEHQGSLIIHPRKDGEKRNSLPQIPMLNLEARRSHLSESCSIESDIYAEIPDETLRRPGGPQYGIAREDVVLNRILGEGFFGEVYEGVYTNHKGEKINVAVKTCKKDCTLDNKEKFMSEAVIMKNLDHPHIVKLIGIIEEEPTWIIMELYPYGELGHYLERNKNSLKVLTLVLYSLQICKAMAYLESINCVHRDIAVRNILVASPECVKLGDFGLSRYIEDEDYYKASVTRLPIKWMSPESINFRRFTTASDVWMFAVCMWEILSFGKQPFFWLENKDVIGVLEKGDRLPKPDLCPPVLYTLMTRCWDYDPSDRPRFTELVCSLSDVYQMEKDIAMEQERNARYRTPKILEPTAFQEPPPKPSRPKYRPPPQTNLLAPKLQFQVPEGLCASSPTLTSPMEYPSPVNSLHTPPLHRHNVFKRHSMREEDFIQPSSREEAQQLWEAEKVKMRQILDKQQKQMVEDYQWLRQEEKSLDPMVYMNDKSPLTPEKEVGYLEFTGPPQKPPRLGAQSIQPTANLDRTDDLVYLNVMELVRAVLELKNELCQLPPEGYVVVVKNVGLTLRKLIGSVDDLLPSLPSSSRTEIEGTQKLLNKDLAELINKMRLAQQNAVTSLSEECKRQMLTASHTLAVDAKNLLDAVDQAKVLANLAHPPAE

[11] = biological target: Tyrosine-protein kinase receptor TYRO3 (Homo sapiens, UniProt Q06418); format: functional;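 further: TYRO3 value obtained as one member of a kinome-wide profiling panel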
[12] = biological target: Rho-associated protein kinase 2 (Homo sapiens, UniProt O75116); format: functional
[13] = biological target: Dual specificity tyrosine-phosphorylation-regulated kinase 4 (Homo sapiens, UniProt Q9NR20); format: functional
[14] = biological target: Dual specificity tyrosine-phosphorylation-regulated kinase 1A (Homo sapiens, UniProt Q13627); format: functional;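 further: measured against DYRK1A as one member of a broad kinome profiling panel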
[15] = biological target: Serine/threonine-protein kinase MRCK alpha (Homo sapiens, UniProt Q5VT25); format: functional
[16] = biological target: Serine/threonine-protein kinase pim-1 (Homo sapiens, UniProt P11309); format: functional
Sequence of Serine/threonine-protein kinase pim-1 (P11309 whole entry): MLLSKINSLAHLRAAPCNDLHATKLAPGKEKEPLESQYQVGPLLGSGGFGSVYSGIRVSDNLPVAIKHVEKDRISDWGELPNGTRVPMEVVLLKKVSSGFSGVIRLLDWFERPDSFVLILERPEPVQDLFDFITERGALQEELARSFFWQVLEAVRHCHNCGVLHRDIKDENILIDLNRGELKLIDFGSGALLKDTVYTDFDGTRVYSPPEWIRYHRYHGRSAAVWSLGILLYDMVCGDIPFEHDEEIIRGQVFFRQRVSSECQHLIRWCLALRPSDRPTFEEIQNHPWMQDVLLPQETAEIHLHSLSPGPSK

[17] = biological target: Ribosomal protein S6 kinase alpha-3 (Homo sapiens, UniProt P51812); format: functional;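 further: measured within a kinome-wide profiling panel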
[18] = biological target: Glycogen synthase kinase-3 alpha (Homo sapiens, UniProt P49840); format: functional;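 further: GSK3A result taken from a broad kinome-wide kinase panel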
[19] = biological target: Serine/threonine-protein kinase PLK3 (Homo sapiens, UniProt Q9H4B4); format: functional
[20] = biological target: Inhibitor of nuclear factor kappa-B kinase subunit beta (Homo sapiens, UniProt O14920); format: functional
[21] = biological target: Inhibitor of nuclear factor kappa-B kinase subunit alpha (Homo sapiens, UniProt O15111); format: functional
Hexokinase HKDC1 [22] = biological target: T1, Hexokinase HKDC1 (Homo sapiens, UniProt Q2TB90); assay: inhibition of HKDC1 glucose phosphorylation – biochemical, W721R variant, dose response (AID 504729); format: functional
T1 sequence (Q2TB90 whole entry): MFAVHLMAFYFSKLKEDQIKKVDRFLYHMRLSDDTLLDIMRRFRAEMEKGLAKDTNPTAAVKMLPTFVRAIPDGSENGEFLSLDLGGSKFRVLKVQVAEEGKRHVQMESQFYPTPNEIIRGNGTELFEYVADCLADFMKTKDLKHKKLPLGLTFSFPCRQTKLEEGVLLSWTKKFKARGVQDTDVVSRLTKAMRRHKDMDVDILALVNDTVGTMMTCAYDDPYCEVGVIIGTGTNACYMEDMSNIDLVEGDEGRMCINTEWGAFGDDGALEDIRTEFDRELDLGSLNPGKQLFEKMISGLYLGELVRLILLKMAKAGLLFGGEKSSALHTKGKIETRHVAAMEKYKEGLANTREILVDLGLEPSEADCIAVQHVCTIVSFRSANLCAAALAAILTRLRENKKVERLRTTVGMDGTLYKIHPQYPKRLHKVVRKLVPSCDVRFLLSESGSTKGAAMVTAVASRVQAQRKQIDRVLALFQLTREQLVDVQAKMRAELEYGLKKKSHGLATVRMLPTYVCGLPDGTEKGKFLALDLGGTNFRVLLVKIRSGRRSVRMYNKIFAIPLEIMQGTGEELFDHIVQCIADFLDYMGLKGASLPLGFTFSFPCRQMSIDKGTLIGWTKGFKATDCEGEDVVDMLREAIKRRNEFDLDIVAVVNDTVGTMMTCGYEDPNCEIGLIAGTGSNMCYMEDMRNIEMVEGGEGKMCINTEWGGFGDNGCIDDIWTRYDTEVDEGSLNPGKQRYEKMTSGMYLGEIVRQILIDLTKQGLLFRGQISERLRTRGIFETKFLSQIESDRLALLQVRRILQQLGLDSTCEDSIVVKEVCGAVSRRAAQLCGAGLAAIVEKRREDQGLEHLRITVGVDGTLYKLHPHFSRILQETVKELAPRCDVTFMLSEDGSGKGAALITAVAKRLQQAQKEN

Hexokinase HKDC1 [23] = biological target: T1, Hexokinase HKDC1; assay: analog inhibition of human HKDC1 activity – biochemical, set 2, SAR follow-up (AID 588355); format: functional
[24] = biological target: Cystic fibrosis transmembrane conductance regulator/Golgi-associated PDZ and coiled-coil motif-containing protein (Homo sapiens, UniProt P13569+Q9HD26); assay: potency against CAL PDZ-peptide interaction – biochemical, fluorescence polarization, Cerulean-tagged CAL PDZ, cherry-picks, dose response (AID 504773)
Sequence of Cystic fibrosis transmembrane conductance regulator/Golgi-associated PDZ and coiled-coil motif-containing protein (P13569 whole entry, other chains not shown): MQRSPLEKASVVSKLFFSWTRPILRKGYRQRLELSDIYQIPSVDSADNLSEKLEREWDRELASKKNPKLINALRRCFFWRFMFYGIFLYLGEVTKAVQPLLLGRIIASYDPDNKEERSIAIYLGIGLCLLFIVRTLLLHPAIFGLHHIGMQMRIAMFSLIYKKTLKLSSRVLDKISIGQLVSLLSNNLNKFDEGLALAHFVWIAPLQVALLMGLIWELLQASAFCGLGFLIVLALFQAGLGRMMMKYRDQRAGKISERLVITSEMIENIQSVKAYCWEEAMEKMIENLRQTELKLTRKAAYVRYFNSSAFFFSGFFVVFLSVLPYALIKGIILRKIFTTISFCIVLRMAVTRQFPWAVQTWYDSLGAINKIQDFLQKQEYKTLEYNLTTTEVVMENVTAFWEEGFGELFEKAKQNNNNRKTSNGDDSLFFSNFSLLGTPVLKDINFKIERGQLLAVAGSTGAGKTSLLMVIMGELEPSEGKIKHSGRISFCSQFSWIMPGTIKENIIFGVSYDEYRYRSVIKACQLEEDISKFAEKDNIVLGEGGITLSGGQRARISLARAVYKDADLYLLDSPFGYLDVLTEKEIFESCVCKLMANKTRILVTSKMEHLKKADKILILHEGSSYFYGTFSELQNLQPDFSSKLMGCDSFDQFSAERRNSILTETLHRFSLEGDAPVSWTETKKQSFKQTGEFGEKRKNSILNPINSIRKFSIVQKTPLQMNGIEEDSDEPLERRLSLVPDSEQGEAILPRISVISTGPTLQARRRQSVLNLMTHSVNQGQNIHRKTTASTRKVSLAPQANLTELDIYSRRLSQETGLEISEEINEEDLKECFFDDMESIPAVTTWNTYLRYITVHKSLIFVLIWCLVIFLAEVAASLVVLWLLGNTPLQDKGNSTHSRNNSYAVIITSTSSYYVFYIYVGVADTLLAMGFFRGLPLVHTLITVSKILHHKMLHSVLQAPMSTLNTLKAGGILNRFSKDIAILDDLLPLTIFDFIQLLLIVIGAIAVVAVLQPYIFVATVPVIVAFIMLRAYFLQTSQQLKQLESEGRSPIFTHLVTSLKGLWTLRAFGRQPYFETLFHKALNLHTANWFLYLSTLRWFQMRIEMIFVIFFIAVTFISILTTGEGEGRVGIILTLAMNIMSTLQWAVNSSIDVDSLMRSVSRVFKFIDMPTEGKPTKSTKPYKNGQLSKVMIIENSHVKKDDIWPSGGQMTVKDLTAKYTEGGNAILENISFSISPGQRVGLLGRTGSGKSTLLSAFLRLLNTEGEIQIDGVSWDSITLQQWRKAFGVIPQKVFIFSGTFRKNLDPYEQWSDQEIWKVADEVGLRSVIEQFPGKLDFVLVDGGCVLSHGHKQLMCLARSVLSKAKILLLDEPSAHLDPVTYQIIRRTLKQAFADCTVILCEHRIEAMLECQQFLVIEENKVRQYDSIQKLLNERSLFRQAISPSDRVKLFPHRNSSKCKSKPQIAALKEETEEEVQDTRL

Cc1n[nH]c2cnc(-c3cncc(OCC(N)Cc4cccc(C(F)(F)F)c4)c3)cc12 (centres undefined)
active: Ki [1] 15.8 nM | Ki [2] 398 nM | Ki [4] 15.8 nM | Ki [5] 31.6 nM | Ki [9] 31.6 nM | Ki [10] 1580 nM | Ki [11] 2000 nM | Ki [12] 20 nM | Ki [13] 126 nM
inactive: Ki [3] > 3980 nM | Ki [6] > 7940 nM | Ki [7] > 398 nM | Ki [8] > 2000 nM

Cc1c(C=O)c(O)n2c(nc3ccccc32)c1C#N
inactive: Ki [15] > 10000 nM | Ki [20] > 3160 nM | Ki [21] > 3980 nM
active: Ki [14] 501 nM | Ki [16] 158 nM | Ki [17] 5010 nM | Ki [18] 3980 nM | Ki [19] 794 nM

CC(=O)NC1C(=O)N(CCN2CCOCC2)c2ccc(Cl)cc21 (centres undefined)
active: IC50 (Hexokinase HKDC1 [22]) 6750 nM | IC50 (Hexokinase HKDC1 [23]) 11500 nM | AC50 [24] 26800 nM
